# Patent US20170304288A1, “Formulations of Methionine Aminopeptidase Inhibitors for Treating Infectious Diseases” (Texas Southern University, priority 2013, published 2017)
# Read-outs that look alike come from different tables or passages of the source. Marks after values point to notes of the source that are not given here.
# Columns and labels:
# E. faecalis OG1RF [1] = assay: Liquid-based C. elegans infection model, survival; type: in vivo, Enterococcus faecalis
# E. faecalis V583 = assay: Assay of E. faecalis inhibition (MIC) in BHI culture
# [2] = Pharmacokinetic study in male Sprague Dawley rats; type: in vivo; conditions: rat; for Cmax / clearance / bioavailability / half-life / Vd: male, Sprague Dawley, plasma; for bioavailability: read-out: Fabs (absolute bioavailability); for Vd: read-out: VD (volume of distribution)
# Excerpt: Pharmacokinetic evaluation elucidates the fate of compound 5 in living systems. The pharmacokinetic study of compound 5 was also a means to verify the applicability of the LC-MS/MS assay method and the formulations. An adult male Sprague Dawley rat model was the preferred biological system for this experiment based on the similarity to humans in metabolism and minimal interference of hormones with metabolism. Briefly, male Sprague Dawley rats (n=4 for IV group, n=3 for subcutaneous and oral groups each, body weight: 300-350 g) were cannulated through the jugular vein under anesthesia (using a cocktail of ketamine: acepromazine: xylazine at a ratio of 50: 3.3: 3.3 mg/kg). On the following day, the optimal IV co-solvent formulation was diluted five times with normal saline to 1 mg/mL. The formulation for subcutaneous and oral administration was diluted with equal amount of normal saline to 3.75 mg/mL. Each rat was administered a 2 mg/kg IV bolus dose, 10 mg/kg subcutaneous dose or 20 mg/kg oral dose of compound 5. Heparinized blood samples were withdrawn from each rat at 5, 10, 15, 30 mins, 1, 2, 4, 6, 8, 12, 24, 48, 72, 96, 144 h after injection. The blood samples were centrifuged at 14,000 rpm for 6 min and the supernatant plasma obtained and stored at −80° C. until LC-MS/MS analysis for the concentration of compound 5. Urine samples were also collected at 0, 4, 8, 12, and 24 h. The plasma and urine samples were analyzed (within 7 days) using the developed LC/MS/MS method to determine the concentration of compound 5. FIG. 19A-D show plots of the plasma concentration of compound 5 against time.
# The pharmacokinetic parameters for each rat were determined with Phoenix WinNonlin 6.3 software (Pharsight Corporation, Mountain View, Calif., USA) a non-compartmental analysis and a two compartment, which best described the fit for the IV bolus administration of compound 5, based on the observed and predicted fits of the plasma concentration versus time plot, the reduction in the sums of squares, and the Akaike's information criterion (AIC) for comparing compartmental models (5).
# The weighting scheme of concentration^−2 (Y^−2) was used to determine the model that best fits the individual profiles. […] The plasma concentration -time profiling following 20 mg/Kg oral and 10 mg/kg subcutaneous doses of compound 5 is shown in FIG. 22C.
# [3] = Solubility in various solvents, shaker method; type: physicochemical; conditions: for solubility at 72 h: thermodynamic from solid, read-out: Mean Solubility ± SD
# Experimental: Assessment of the solubility of compound 5 in various solvents is important in developing suitable formulations for preclinical and clinical studies. The solubility of compound 5 in water, ethanol, poly ethylene glycol 400, propylene glycol monocapryrate type I (PGMC), propylene glycol monocapryrate type II (CAPYROL 90), dimethyl sulfoxide (DMSO), dimethyl acetamide (DMA), TWEEN 80, TWEEN 20, paraffin oil, soybean oil, and olive oil were determined by the shaker method. Briefly, excess amount of compound 5 was added to each of the selected solvents in a scintillation vial and placed on a reciprocating shaker to shake at room temperature for 72 h. The samples were centrifuged at 14,000 rpm for 10 min and subsequently filtered through a 0.22 μm filtration unit; the resulting filtrate was analyzed by HPLC-UV to determine the amount of compound 5 dissolved in the solvents. The experiment was conducted in triplicate.
# E. faecalis OG1RF [4] = assay: Assay of E. faecalis inhibition (MIC) in BHI culture; conditions: Enterococcus faecalis, read-out: Minimum Inhibitory Concentration MIC30 OG1RF
# plasma protein = assay: Plasma protein binding in rat plasma
# [5] = Stability of co-solvent formulations at storage temperatures; type: physicochemical; conditions: stored at −20° C., 4° C. and 25° C.; Day 3, 7, 14 and 30
# Experimental: The stability of the optimal co-solvent formulations was investigated at various storage temperatures. Briefly, aliquots of the optimal co-solvent formulations were stored at different temperatures (−20° C., 4° C. and 25° C.) and analyzed using LC/MS/MS on Day 3, 7, 14 and 30 to determine the amount of compound 5 remaining. The experiment was conducted in triplicates. […] The optimal co-solvent formulations were applied to the pharmacokinetic study of compound 5 in rats (Table 18).
# [6] = Octanol-water partition co-efficient, shaker method; type: physicochemical; conditions: read-out: experimental M log P
# Experimental: The octanol—water partition co-efficient (log P) of compound 5, which measures its hydrophilicity (“water-loving” property) or hydrophobicity (“water-repelling” property), was evaluated using the shaker method. […] This indicate potential water solubility challenges especially for oral administration.
# [7] = iv, 2 mg/kg, Intravenous (Dose: 2 mg/kg), non-compartmental analysis
# [8] = iv, 2 mg/kg, Intravenous (Dose: 2 mg/kg), two compartment model
# [9] = po, 20 mg/kg, Oral (Dose: 20 mg/kg), non-compartmental analysis
# [10] = sc, 10 mg/kg, Subcutaneous (Dose: 10 mg/kg), non-compartmental analysis
# [11] = Intravenous (Dose: 2 mg/kg), two compartment model
# [12] = Oral (Dose: 20 mg/kg), non-compartmental analysis
# [13] = Oral (Dose: 20 mg/kg), two compartment model
# [14] = Subcutaneous (Dose: 10 mg/kg), non-compartmental analysis
# [15] = Subcutaneous (Dose: 10 mg/kg), two compartment model
smiles,measurement,setting,value
"Oc1c(Br)cc(Cl)c2cccnc12 [Compound 5, 7-bromo-5-chloroquinolin-8-ol]",survival of the nematodes at Maximum protective concentration,E. faecalis OG1RF [1]; 4×10^−4 μg/mL,~80%
same,survival of infected animals compared to tetracycline,E. faecalis OG1RF [1]; 4×10^−5 μg/mL to 4×10^−4 μg/mL,"survived just as well, or better, than animals treated with tetracycline"
same,MPC (Minimum Protective Concentration) OG1RF,E. faecalis OG1RF [1]; C. elegans,4e-11 µg/mL
same,MmaxPC (Maximum Protective Concentration) OG1RF,E. faecalis OG1RF [1]; C. elegans,0.0004 µg/mL
same,Minimum Inhibitory Concentration MIC30 V583,E. faecalis V583,0.25 to 0.50 µg/mL
same,MIC,"E. faecalis V583; Enterococcus faecalis, V583, read-out: Minimum Inhibitory Concentration MIC30 V583",0.25 to 0.5 µg/mL
same,Cmax,[2]; [7],2560 ± 480 ng/mL
same,clearance,"[2]; iv, 2 mg/kg, Intravenous (Dose: 2 mg/kg), non-compartmental analysis, read-out: Cl- (total body clearance) (converted)",1.67 mL/min/kg
same,bioavailability,[2]; [7],100%
same,half-life,"[2]; iv, 2 mg/kg, Intravenous (Dose: 2 mg/kg), non-compartmental analysis, read-out: T1/2 (elimination half-life) (converted)",176 ± 30.5 h
same,Vd,[2]; [7],24.6 ± 1.19 L/kg
same,Cmax,[2]; [8],2600 ± 560 ng/mL
same,clearance,"[2]; iv, 2 mg/kg, Intravenous (Dose: 2 mg/kg), two compartment model, read-out: Cl (total body clearance) (converted)",2.17 mL/min/kg
same,half-life,"[2]; iv, 2 mg/kg, Intravenous (Dose: 2 mg/kg), two compartment model, read-out: T1/2α (distribution half-life) (converted)",0.19 ± 0.02 h
same,half-life,"[2]; iv, 2 mg/kg, Intravenous (Dose: 2 mg/kg), two compartment model, read-out: T1/2β (elimination half-life) (converted)",109 ± 19.4 h
same,Vd,[2]; [8],21.6 ± 1.32 L/kg
same,Cmax,[2]; [9],1730 ± 380 ng/mL
same,bioavailability,[2]; [9],4.6%
same,half-life,"[2]; po, 20 mg/kg, Oral (Dose: 20 mg/kg), non-compartmental analysis, read-out: T1/2 (elimination half-life) (converted)",8.21 h
same,Cmax,"[2]; po, 20 mg/kg, Oral (Dose: 20 mg/kg), two compartment model",1670 ± 600 ng/mL
same,half-life,"[2]; po, 20 mg/kg, Oral (Dose: 20 mg/kg), two compartment model, read-out: T1/2abs (absorption half-life) (converted)",0.14 ± 0.02 h
same,half-life,"[2]; po, 20 mg/kg, Oral (Dose: 20 mg/kg), two compartment model, read-out: T1/2α (distribution half-life) (converted)",0.33 ± 0.01 h
same,half-life,"[2]; po, 20 mg/kg, Oral (Dose: 20 mg/kg), two compartment model, read-out: T1/2β (elimination half-life) (converted)",7.05 ± 1.88 h
same,Cmax,[2]; [10],910 ± 70 ng/mL
same,bioavailability,[2]; [10],15.7%
same,half-life,"[2]; sc, 10 mg/kg, Subcutaneous (Dose: 10 mg/kg), non-compartmental analysis, read-out: T1/2 (elimination half-life) (converted)",36.8 ± 2.87 h
same,Cmax,"[2]; sc, 10 mg/kg, Subcutaneous (Dose: 10 mg/kg), two compartment model",970 ± 50 ng/mL
same,half-life,"[2]; sc, 10 mg/kg, Subcutaneous (Dose: 10 mg/kg), two compartment model, read-out: T1/2abs (absorption half-life) (converted)",0.376 ± 0.01 h
same,half-life,"[2]; sc, 10 mg/kg, Subcutaneous (Dose: 10 mg/kg), two compartment model, read-out: T1/2α (distribution half-life) (converted)",1.66 ± 0.65 h
same,half-life,"[2]; sc, 10 mg/kg, Subcutaneous (Dose: 10 mg/kg), two compartment model, read-out: T1/2β (elimination half-life) (converted)",51.5 ± 16.1 h
same,AUC0-∞,"[2]; Intravenous (Dose: 2 mg/kg), non-compartmental analysis",10.3 ± 1 mg/L/h
same,A (coefficient of α-phase),[2]; [11],2.51 ± 0.56 mg/L
same,AUC0-∞,[2]; [11],15.7 ± 1.96 mg/L/h
same,B (coefficient of β-phase),[2]; [11],0.09 ± 0.01 mg/L
same,AUC0-∞,[2]; [12],4.73 ± 0.97^a mg/L/hr
same,Cl- (total body clearance),[2]; [12],4.72 ± 1.20 L/kg/h
same,VD (volume of distribution),[2]; [12],63.9 ± 34.3 L/kg
same,Fabs (absolute bioavailability),"[2]; Oral (Dose: 20 mg/kg), non-compartmental analysis, 20 mg/kg",4.59 ± 1.33%
same,A (coefficient of α-phase),[2]; [13],4.29 ± 0.42 mg/L
same,AUC0-∞,[2]; [13],4.27 ± 1.69 mg/L/h
same,B (coefficient of β-phase),[2]; [13],0.37 ± 0.24 mg/L
same,Cl (total body clearance),[2]; [13],92.3 ± 36.3 mL/min/kg
same,VD (volume of distribution),[2]; [13],34.8 ± 21.8 L/kg
same,AUC0-∞,[2]; [14],8.14 ± 0.23^c mg/L/hr
same,Cl- (total body clearance),[2]; [14],1.23 ± 0.04^c L/kg/hr
same,VD (volume of distribution),[2]; [14],65.0 ± 3.77^c L/kg
same,A (coefficient of α-phase),[2]; [15],2.05 ± 0.57 mg/L
same,AUC0-∞,[2]; [15],8.68 ± 0.92 mg/L/h
same,B (coefficient of β-phase),[2]; [15],0.08 ± 0.02 mg/L
same,Cl (total body clearance),[2]; [15],19.5 ± 2 mL/min/kg
same,VD (volume of distribution),[2]; [15],45.8 ± 5.95 L/kg
same,Mean Solubility ± SD,[3]; Dimethyl acetamide,>80 mg/mL
same,solubility at 72 h,"[3]; dimethyl acetamide, organic solvent or mixture",> 80 mg/mL
same,solubility at 72 h,[3]; water,0.07 mg/mL
same,MIC,E. faecalis OG1RF [4],2.5 to 5 µg/mL
same,Bound fraction (%) ± SD,plasma protein; Concentration 5 μg/mL,91.0 ± 0.6%
same,Bound fraction (%) ± SD,plasma protein; Concentration 25 μg/mL,96.3 ± 1.4%
same,Bound fraction (%) ± SD,plasma protein; Concentration 50 μg/mL,98.3 ± 0.3%
same,stability in the optimal co-solvent formulations,[5],stable in the co-solvent formulations for up to one month
same,logP,[6],3.03 ± 0.04
